Assays:
Mus musculus [1] = species: Mus musculus; assay: Hypnotic activity was measured as dose which causes loss of righting reflex for a minimum period of 30s in 50% of mice; Range is 20-30; assay type: functional
Mus musculus [2] = species: Mus musculus; assay: Duration of analgesic action in mice was determined; B = brief, < 5 min; assay type: functional, organism-based
[3] = Acute toxicity measured as median lethal dose in mice; assay type: organism-based; conditions: mouse, in vivo
Mus musculus [4] = species: Mus musculus; assay: Speed of induction of analgesia in mice was determined; I = immediate, <10 s; assay type: functional, organism-based
[5] = Acute toxicity measured as median lethal dose in mice; Range is 80-90; assay type: organism-based; conditions: mouse, in vivo
Mus musculus [6] = species: Mus musculus; assay: Hypnotic activity was measured as dose which causes loss of righting reflex for a minimum period of 30s in 50% of mice; Range is 20-25; assay type: functional
Mus musculus [7] = species: Mus musculus; assay: Hypnotic activity was measured as dose which causes loss of righting reflex for a minimum period of 30s in 50% of mice; Range is 40-60; assay type: functional
[8] = Acute toxicity measured as median lethal dose in mice; Range is 80-100; assay type: organism-based; conditions: mouse, in vivo
Mus musculus [9] = species: Mus musculus; assay: Hypnotic activity was measured as dose which causes loss of righting reflex for a minimum period of 30s in 50% of mice; Range is 30-40; assay type: functional
[10] = Acute toxicity measured as median lethal dose in mice; Range is 100-120; assay type: organism-based; conditions: mouse, in vivo
Mus musculus [11] = species: Mus musculus; assay: Hypnotic activity was measured as dose which causes loss of righting reflex for a minimum period of 30s in 50% of mice; Range is 10-20; assay type: functional
Mus musculus [12] = species: Mus musculus; assay: Hypnotic activity was measured as dose which causes loss of righting reflex for a minimum period of 30s in 50% of mice; assay type: functional
Mus musculus [13] = species: Mus musculus; assay: Duration of analgesic action in mice was determined; L = long, >10; assay type: functional, organism-based
Mus musculus [14] = species: Mus musculus; assay: Speed of induction of analgesia in mice was determined; S = slow, 10-15 s; assay type: functional, organism-based
Mus musculus [15] = species: Mus musculus; assay: Hypnotic activity was measured as dose which causes loss of righting reflex for a minimum period of 30s in 50% of mice; Range is 10-15; assay type: functional
[16] = Acute toxicity measured as median lethal dose in mice; Range is 40-45; assay type: organism-based; conditions: mouse, in vivo
Mus musculus [17] = species: Mus musculus; assay: Hypnotic activity was measured as dose which causes loss of righting reflex for a minimum period of 30s in 50% of mice; Range is 1-1.5; assay type: functional
Mus musculus [18] = species: Mus musculus; assay: Speed of induction of analgesia in mice was determined; VS = very slow, > 15s; assay type: functional, organism-based
Mus musculus [19] = species: Mus musculus; assay: Hypnotic activity was measured as dose which causes loss of righting reflex for a minimum period of 30s in 50% of mice; Range is 20-40; assay type: functional
Mus musculus [20] = species: Mus musculus; assay: Hypnotic activity was measured as dose which causes loss of righting reflex for a minimum period of 30s in 50% of mice; Range is 15-20; assay type: functional
[21] = Acute toxicity measured as median lethal dose in mice; Range is 60-80; assay type: organism-based; conditions: mouse, in vivo
[22] = Acute toxicity measured as median lethal dose in mice; Range is 120-140; assay type: organism-based; conditions: mouse, in vivo
Mus musculus [23] = species: Mus musculus; assay: Hypnotic activity was measured as dose which causes loss of righting reflex for a minimum period of 30s in 50% of mice; Range is 5-10; assay type: functional
Mus musculus [24] = species: Mus musculus; assay: Duration of analgesic action in mice was determined; M = moderate, 5-10 min; assay type: functional, organism-based
Mus musculus [25] = species: Mus musculus; assay: Hypnotic activity was measured as dose which causes loss of righting reflex for a minimum period of 30s in 50% of mice; Range is 60-80; assay type: functional

CCCc1cccc(CCC)c1O
HD50 (Mus musculus [1]): 20 mg/kg | Duration of action (Mus musculus [2]): Brief duration | LD50 [3]: 100 mg/kg | Speed of induction (Mus musculus [4]): Immediate

CCCC(C)C1(CC)C(=O)[N-]C(=S)NC1=O.[Na+] (stereo in doubt; form 2) [THIOPENTAL SODIUM]
LD50 [5]: 80 mg/kg | HD50 (Mus musculus [6]): 20 mg/kg

CC(C)c1ccc(O)c(C(C)C)c1
HD50 (Mus musculus [7]): 40 mg/kg | LD50 [3]: 120 mg/kg

Cc1ccc(C(C)C)cc1O [CARVACROL]
LD50 [8]: 80 mg/kg | HD50 (Mus musculus [9]): 30 mg/kg

CCCC(C)c1cccc(CC)c1O (centres undefined)
Duration of action (Mus musculus [2]): Brief duration | LD50 [10]: 100 mg/kg | HD50 (Mus musculus [11]): 10 mg/kg | Speed of induction (Mus musculus [4]): Immediate

CCC(C)c1ccc(O)c(C(C)CC)c1 (centres undefined)
HD50 (Mus musculus [1]): 20 mg/kg | LD50 [3]: 120 mg/kg

Cc1c(C(C)C)ccc(C(C)C)c1O
HD50 (Mus musculus [12]): 20 mg/kg | LD50 [3]: 100 mg/kg

Oc1ccccc1 [PHENOL]
HD50 (Mus musculus [12]): 70 mg/kg | LD50 [3]: 100 mg/kg

CCCCc1c(C)ccc(C(C)C)c1O
HD50 (Mus musculus [12]): 50 mg/kg | LD50 [3]: 150 mg/kg

CC(C)(C)c1ccc(O)c(C(C)(C)C)c1
LD50 [10]: 100 mg/kg | HD50 (Mus musculus [7]): 40 mg/kg

CCCCC(C)c1cccc(C(C)C)c1O (centres undefined)
LD50 [10]: 100 mg/kg | Duration of action (Mus musculus [13]): Long | Speed of induction (Mus musculus [14]): Slow | HD50 (Mus musculus [15]): 10 mg/kg

CCc1cc(C(C)C)c(O)c(C(C)C)c1
LD50 [8]: 80 mg/kg | HD50 (Mus musculus [12]): 20 mg/kg

CC(C)c1ccccc1O
LD50 [10]: 100 mg/kg | HD50 (Mus musculus [9]): 30 mg/kg

CCOC(=O)c1cncn1[C@H](C)c1ccccc1 [ETOMIDATE]
Duration of action (Mus musculus [2]): Brief duration | LD50 [16]: 40 mg/kg | HD50 (Mus musculus [17]): 1 mg/kg | Speed of induction (Mus musculus [4]): Immediate induction

Cc1cc(C(C)C)c(O)c(C(C)C)c1
LD50 [8]: 80 mg/kg | HD50 (Mus musculus [12]): 20 mg/kg

CCCCc1cccc(CCC)c1O
Duration of action (Mus musculus [2]): Brief duration | LD50 [10]: 100 mg/kg | Speed of induction (Mus musculus [18]): Very slow | HD50 (Mus musculus [19]): 20 mg/kg

CCc1cccc(C(C)C)c1O
Duration of action (Mus musculus [2]): Brief duration | HD50 (Mus musculus [20]): 15 mg/kg | LD50 [21]: 60 mg/kg | Speed of induction (Mus musculus [4]): Immediate

CCCC(C)C1(CC)C(=O)NC(=S)NC1=O (stereo in doubt; form 1)
Duration of action (Mus musculus [2]): Brief duration | Speed of induction (Mus musculus [4]): Immediate

CCCCc1cccc(C(C)C)c1O
Duration of action (Mus musculus [2]): Brief duration | HD50 (Mus musculus [12]): 20 mg/kg | LD50 [3]: 100 mg/kg | Speed of induction (Mus musculus [4]): Immediate

CCc1cccc(CC)c1O
Duration of action (Mus musculus [2]): Brief duration | HD50 (Mus musculus [20]): 15 mg/kg | LD50 [3]: 100 mg/kg | Speed of induction (Mus musculus [14]): Slow induction

CC(C)c1cccc(C2CC2)c1O
HD50 (Mus musculus [1]): 20 mg/kg | Duration of action (Mus musculus [2]): Brief duration | Speed of induction (Mus musculus [4]): Immediate | LD50 [22]: 120 mg/kg

C=CCC1(C(C)C#CCC)C(=O)NC(=O)N(C)C1=O (centres undefined)
Duration of action (Mus musculus [2]): Brief duration | Speed of induction (Mus musculus [4]): Immediate

Cc1ccc(O)c(C(C)(C)C)c1
HD50 (Mus musculus [12]): 30 mg/kg

Cc1ccc(C(C)C)c(O)c1 [THYMOL]
HD50 (Mus musculus [12]): 30 mg/kg

CCC(C)c1cccc(C(C)CC)c1O (centres undefined)
HD50 (Mus musculus [23]): 5 mg/kg | Duration of action (Mus musculus [24]): Moderate | LD50 [3]: 60 mg/kg | Speed of induction (Mus musculus [14]): Slow

CCC(C)c1ccccc1O (centres undefined)
HD50 (Mus musculus [9]): 30 mg/kg

CCCc1cccc(C(C)C)c1O
HD50 (Mus musculus [1]): 20 mg/kg | Duration of action (Mus musculus [2]): Brief duration | LD50 [3]: 80 mg/kg | Speed of induction (Mus musculus [4]): Immediate

CCCc1cccc(CC)c1O
Duration of action (Mus musculus [2]): Brief duration | Speed of induction (Mus musculus [18]): Very slow | LD50 [3]: 100 mg/kg | HD50 (Mus musculus [19]): 20 mg/kg

CCc1c(C)cc(C)c(CC)c1O
HD50 (Mus musculus [25]): 60 mg/kg | LD50 [3]: 160 mg/kg

Reference: ChEMBL document CHEMBL1121624, “Synthesis, biological evaluation, and preliminary structure-activity considerations of a series of alkylphenols as intravenous anesthetic agents” (J Med Chem, 1980)
